What was measured:
Type in all cases: physicochemical
[1] = Light stability, 4 weeks at 25° C. with exposure to daylight, HPLC
Source text: A measurement was made of the contents of the salts with resort to HPLC under the same conditions as in the chemical stability test.

[2] = Chemical stability in aqueous state, 25° C., 4 weeks in the dark, HPLC; settings: distilled water
Procedure: The resulting aqueous solutions were stored at 25° C. for 4 weeks in the dark, after which a measurement was made of the contents of the salts with resort to HPLC under the same conditions as in the solid state.

[3] = Solubility in various solvents at 37° C.; settings: aqueous buffer, ionic strength 0.2, 37° C., based on the weight of amlodipine
[4] = Chemical stability in solid state, accelerated test at 60° C.

| SMILES | Color change on light exposure ([1]; 4 weeks, 25° C., daylight) | Content (HPLC), Stored 4 weeks, 25° C. daylight ([1]; 4 weeks, 25° C., daylight) [%] | Content (HPLC), Initial [1] [%] | Degraded impurity / content change in aqueous solution [2] | solubility ([3]; pH 3 buffer) [mg/mL] | solubility ([3]; pH 4 buffer) [mg/mL] | solubility ([3]; pH 6 buffer) [mg/mL] | solubility ([3]; pH 7 buffer) [mg/mL] | solubility ([3]; pH 8 buffer) [mg/mL] | Content, storage period 1 week ([4]; 1 week) [%] | Content, storage period 2 weeks ([4]; 2 weeks) [%] | Content, storage period 4 weeks ([4]; 4 weeks) [%] | Content, storage period initial ([4]; initial) [%] |
| --- | --- | --- | --- | --- | --- | --- | --- | --- | --- | --- | --- | --- | --- |
| CCOC(=O)C1=C(COCCN)NC(C)=C(C(=O)OC)C1c1ccccc1Cl (stereo not drawn) [Besylate, Amlodipine Besylate] | turned yellow from white | 82.5 | 99.2 | neither degraded impurity nor content change was found | 3.25 | 3.15 | 3.19 | 1.59 | 1.39 | 99.6 | 99.4 | 99.2 | 99.6 |
| CCOC(=O)C1=C(COCCN)NC(C)=C(C(=O)OC)C1c1ccccc1Cl.Cc1ccc(S(=O)(=O)O)cc1 (stereo not drawn) [Tosylate, Amlodipine Para-toluenesulfonate] |  | 72.0 | 99.2 |  |  |  |  |  |  |  |  |  |  |

From patent publication US6756390B2, “Organic acid salt of amlodipine” (CJ Corp., priority 2002, dated 2004)
